{"source": "patent US5693628A", "about": "“11-benzaldoxime-estra-diene derivatives, methods for their production and pharmaceuticals containing these compounds” (priority 1994, dated 1997)", "key": {"progesterone receptor": {"biological_target": "T1, progesterone receptor (Oryctolagus cuniculus, UniProt P06186)", "T1 construct": "uterine cytosol of the estradiol-primed rabbit; from tissue; host or cells: uterus (cytosol) of estradiol-primed rabbit", "T1 sequence (P06186 1-930)": "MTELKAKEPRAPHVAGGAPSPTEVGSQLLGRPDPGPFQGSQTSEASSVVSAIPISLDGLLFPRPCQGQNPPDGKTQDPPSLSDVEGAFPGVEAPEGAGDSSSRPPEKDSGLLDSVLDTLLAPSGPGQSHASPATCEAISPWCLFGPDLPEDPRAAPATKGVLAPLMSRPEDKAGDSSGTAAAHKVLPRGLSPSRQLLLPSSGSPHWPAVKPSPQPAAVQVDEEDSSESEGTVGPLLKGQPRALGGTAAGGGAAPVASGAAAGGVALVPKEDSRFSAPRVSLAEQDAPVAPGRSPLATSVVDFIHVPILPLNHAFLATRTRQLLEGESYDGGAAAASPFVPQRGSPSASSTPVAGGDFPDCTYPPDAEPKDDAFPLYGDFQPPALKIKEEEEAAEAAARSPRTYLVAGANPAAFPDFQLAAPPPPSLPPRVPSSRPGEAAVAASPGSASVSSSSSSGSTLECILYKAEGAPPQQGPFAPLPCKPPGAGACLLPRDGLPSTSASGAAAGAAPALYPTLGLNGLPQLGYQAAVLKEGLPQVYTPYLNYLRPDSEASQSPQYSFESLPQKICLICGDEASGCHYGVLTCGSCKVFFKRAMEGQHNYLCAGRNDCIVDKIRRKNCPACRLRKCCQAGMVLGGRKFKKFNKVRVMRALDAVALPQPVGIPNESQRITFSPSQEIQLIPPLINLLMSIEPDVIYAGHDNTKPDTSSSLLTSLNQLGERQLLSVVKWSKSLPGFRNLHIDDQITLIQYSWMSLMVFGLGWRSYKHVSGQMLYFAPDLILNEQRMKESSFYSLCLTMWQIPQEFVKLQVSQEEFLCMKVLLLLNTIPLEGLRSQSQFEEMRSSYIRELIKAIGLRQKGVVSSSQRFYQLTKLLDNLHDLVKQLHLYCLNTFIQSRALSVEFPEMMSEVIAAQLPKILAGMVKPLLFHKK", "assay": "relative molar bonding affinity to progesterone receptor (competitive bonding)", "format": "binding", "conditions": "progesterone = 100%; uterine cytosol of estradiol-primed rabbit; 3H-ORG 2058, 5 nM; 18 h, 0-4° C.", "procedure": "(§1) Measurement of bonding affinity for receptors\n(§2) Receptor bonding affinity was determined by competitive bonding of a specifically binding ^3 H labelled hormone (tracer) and the compound to be tested to receptors in the cytosol from animal target organs. It was tried to obtain receptor saturation and a balanced reaction. The following incubation conditions were selected:\nProgesterone receptor: uterine cytosol of the estradiol-primed rabbit, kept at -30° C. in TED buffer (20 mM Tris/HCl, pH 7.4; 1 mM ethylene diamine tetraacetate, 2 mM dithio threitol) with 250 mM of saccharose.\n(§3) After an incubation period of 18 hours at 0°-4° C., bonded and free steroid was separated by mixing in active carbon/dextrane (1%/0.1%), centrifuging off and measuring the bonded ^3 H activity in the supernatant.\n(§4) The IC50 for the compound to be tested and for the reference substance were determined from measurements in series of concentrations."}, "glucocorticoid receptor": {"biological_target": "T2, glucocorticoid receptor (Rattus norvegicus, UniProt P06536)", "T2 construct": "thymus cytosol of the adrenalectomized rat; from tissue; host or cells: thymus (cytosol) of adrenalectomized rat", "T2 sequence (P06536 1-795)": "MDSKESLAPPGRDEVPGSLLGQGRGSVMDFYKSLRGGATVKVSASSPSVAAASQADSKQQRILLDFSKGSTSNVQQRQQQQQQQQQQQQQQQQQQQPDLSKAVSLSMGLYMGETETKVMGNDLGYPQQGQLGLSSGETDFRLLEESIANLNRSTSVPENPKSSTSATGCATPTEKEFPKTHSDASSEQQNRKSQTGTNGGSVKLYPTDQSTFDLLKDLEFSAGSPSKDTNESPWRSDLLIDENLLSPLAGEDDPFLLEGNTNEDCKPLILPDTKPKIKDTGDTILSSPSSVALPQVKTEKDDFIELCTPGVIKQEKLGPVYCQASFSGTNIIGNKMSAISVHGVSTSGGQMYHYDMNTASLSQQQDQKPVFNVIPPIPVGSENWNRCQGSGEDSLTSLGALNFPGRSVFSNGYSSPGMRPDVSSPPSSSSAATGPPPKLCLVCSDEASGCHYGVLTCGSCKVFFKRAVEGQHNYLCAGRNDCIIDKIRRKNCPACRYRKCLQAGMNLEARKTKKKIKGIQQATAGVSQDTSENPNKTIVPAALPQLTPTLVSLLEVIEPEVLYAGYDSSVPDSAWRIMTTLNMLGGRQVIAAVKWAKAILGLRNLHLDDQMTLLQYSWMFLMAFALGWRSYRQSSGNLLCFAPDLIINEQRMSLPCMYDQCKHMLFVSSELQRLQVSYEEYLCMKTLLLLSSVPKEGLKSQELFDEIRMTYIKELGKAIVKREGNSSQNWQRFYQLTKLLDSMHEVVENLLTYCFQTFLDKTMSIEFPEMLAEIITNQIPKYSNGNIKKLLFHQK", "assay": "relative molar bonding affinity to glucocorticoid receptor (competitive bonding)", "format": "binding", "conditions": "dexamethasone = 100%; thymus cytosol of adrenalectomized rat; 3H-dexamethasone, 20 nM; 18 h, 0-4° C.", "procedure": "as §1, §2\nGlucocorticoid receptor: thymus cytosol of the adrenalectomized rat, thymi kept at -30° C., buffer: TED. Tracer: ^3 H-dexamethasone, 20 nM; reference substance: dexamethasone.\nas §3, §4"}, "oestrogen receptor": {"biological_target": "T3, oestrogen receptor (Oryctolagus cuniculus, UniProt G1SML6)", "T3 construct": "uterine cytosol of the immature rabbit; from tissue; host or cells: uterus (cytosol) of immature rabbit", "T3 sequence (G1SML6 1-598)": "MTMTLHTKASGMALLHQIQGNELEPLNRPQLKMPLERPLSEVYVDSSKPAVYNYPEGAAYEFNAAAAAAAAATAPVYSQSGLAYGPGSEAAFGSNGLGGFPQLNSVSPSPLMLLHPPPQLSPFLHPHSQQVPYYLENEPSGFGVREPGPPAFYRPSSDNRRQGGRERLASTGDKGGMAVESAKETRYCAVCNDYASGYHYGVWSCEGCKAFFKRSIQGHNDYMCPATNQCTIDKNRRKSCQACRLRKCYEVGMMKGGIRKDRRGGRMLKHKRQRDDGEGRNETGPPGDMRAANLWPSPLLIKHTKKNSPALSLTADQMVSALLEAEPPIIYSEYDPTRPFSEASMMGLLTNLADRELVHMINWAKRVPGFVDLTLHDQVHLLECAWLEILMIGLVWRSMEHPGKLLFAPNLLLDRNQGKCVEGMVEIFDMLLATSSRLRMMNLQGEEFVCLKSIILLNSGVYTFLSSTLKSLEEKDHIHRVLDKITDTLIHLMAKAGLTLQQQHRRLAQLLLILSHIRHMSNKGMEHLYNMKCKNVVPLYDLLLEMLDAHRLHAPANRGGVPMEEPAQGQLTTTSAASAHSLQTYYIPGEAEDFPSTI", "assay": "relative molar bonding affinity to oestrogen receptor (competitive bonding)", "format": "binding", "conditions": "estradiol = 100%; uterine cytosol of immature rabbit; 3H-ethinyl estradiol, 3 nM; 18 h, 0-4° C.", "procedure": "as §1, §2\nOestrogen receptor: uterine cytosol of the immature rabbit, kept at -30° C. in TED buffer with 250 mM of saccharose. Tracer: ^3 H-ethinyl estradiol, 3 nM; reference substance: 17β-estradiol.\nas §3\nThe IC50 for the compound to be tested and for the reference substance were determined from measurements in series of concentrations. The quotient of both values (×100%) is the relative molar bonding affinity."}, "[1]": {"system": "uterine weight in cyclic guinea pigs", "assay": "Influence on uterine weight in cyclic guinea pigs", "format": "in vivo, guinea pig", "source_text": "FIG. 1. is a chart showing a comparison of the influence on uterine weight in cyclic guineau pigs when treated with the antigestagen agents RU 486, a control (the vehicle), and a compound of the present invention, J 867 (as prepared in accordance with Example 1).\nFIG. 1 compares the influence of antigestagen treatment of cyclic guinea pigs on uterine weights for J 867 and RU 486.\nTreatment of female guinea pigs with antigestagen\nTreatment of adult female guinea pigs from day 10 to day 18 of the cycle (autopsy). Administration of the specified doses using subcutaneous osmotic pumps (Type 2 ML1 ALZET). Vehicle: […] propylene glycol/24 hrs."}, "[2]": {"system": "early gravidity in the rat", "assay": "Early abortive effect / inhibition of early gravidity in the rat", "format": "in vivo", "conditions": "5th to 7th day of pregnancy; for complete gravidity inhibition % / complete gravidity inhibition N*/N (females not pregnant/inseminated females): empty uteri", "procedure": "Inhibition of early gravidity in the rat\nFemale rats are mated in the pro-oestrus. If semen is found in the vaginal smear on the next day, this day is counted as day 1 (=d1) of the gravidity. Treatment with the test substance or vehicle is applied on d5-d7, autopsy is carried out on d9. The substances are injected subcutaneously in 0.2 ml of vehicle (benzyl benzoate/castor oil 1+4)."}}}
{"smiles": "COC[C@]1(OC)CC[C@H]2[C@@H]3CCC4=CC(=O)CCC4=C3[C@@H](c3ccc(C=NOC)cc3)C[C@@]21C", "note": "[Example 2, 11β-[4-(methoximinomethyl)phenyl]-17β-methoxy-17α-methoxymethyl-estra-4,9-diene-3-on]", "values": [{"measurement": "relative molar bonding affinity (RBA) to progesterone receptor", "setting": "progesterone receptor", "result": 136, "unit": "%"}, {"measurement": "relative molar bonding affinity (RBA) to glucocorticoid receptor", "setting": "glucocorticoid receptor", "result": 82, "unit": "%"}, {"measurement": "relative molar bonding affinity (RBA) to oestrogen rec.", "setting": "oestrogen receptor", "result": "< 0.1", "unit": "%"}]}
{"smiles": "COC[C@]1(OC)CC[C@H]2[C@@H]3CCC4=CC(=O)CCC4=C3[C@@H](c3ccc(C=NOC(C)=O)cc3)C[C@@]21C", "note": "[Example 3, 11β-[4-(acetyloximinomethyl)phenyl]-17β-methoxy-17α-methoxymethyl-estra-4,9-diene-3-on]", "values": [{"measurement": "relative molar bonding affinity (RBA) to progesterone receptor", "setting": "progesterone receptor", "result": 236, "unit": "%"}, {"measurement": "relative molar bonding affinity (RBA) to glucocorticoid receptor", "setting": "glucocorticoid receptor", "result": 73, "unit": "%"}, {"measurement": "relative molar bonding affinity (RBA) to oestrogen rec.", "setting": "oestrogen receptor", "result": "< 0.1", "unit": "%"}]}
{"smiles": "CCOC(=O)ON=Cc1ccc([C@H]2C[C@@]3(C)[C@@H](CC[C@]3(COC)OC)[C@@H]3CCC4=CC(=O)CCC4=C32)cc1", "note": "[Example 4]", "values": [{"measurement": "relative molar bonding affinity (RBA) to progesterone receptor", "setting": "progesterone receptor", "result": 294, "unit": "%"}, {"measurement": "relative molar bonding affinity (RBA) to glucocorticoid receptor", "setting": "glucocorticoid receptor", "result": 66, "unit": "%"}, {"measurement": "relative molar bonding affinity (RBA) to oestrogen rec.", "setting": "oestrogen receptor", "result": "< 0.1", "unit": "%"}]}
{"smiles": "C[C@]12C[C@H](c3ccc(C=NO)cc3)C3=C4CCC(=O)C=C4CC[C@H]3[C@@H]1CC[C@@]2(O)CCl", "note": "[Example 5, 17α-chloromethyl-11β-[4-(hydroximinomethyl)phenyl]-17β-hydroxy-estra-4,9-diene-3-on]", "values": [{"measurement": "relative molar bonding affinity (RBA) to progesterone receptor", "setting": "progesterone receptor", "result": 90, "unit": "%"}, {"measurement": "relative molar bonding affinity (RBA) to glucocorticoid receptor", "setting": "glucocorticoid receptor", "result": 32, "unit": "%"}, {"measurement": "relative molar bonding affinity (RBA) to oestrogen rec.", "setting": "oestrogen receptor", "result": "< 0.1", "unit": "%"}]}
{"smiles": "CC#C[C@]1(O)CC[C@H]2[C@@H]3CCC4=CC(=O)CCC4=C3[C@@H](c3ccc(N(C)C)cc3)C[C@@]21C", "note": "[RU 486, Mifepristone, reference compound]", "values": [{"measurement": "uterine weights of cyclic guinea pigs, high dose", "setting": "[1]; 6 mg/24 hrs, s.c. osmotic pump, day 10 to 18 of cycle", "result": "reduce the uterine weights of the treated animals"}, {"measurement": "uterine weights in the anovulatorial cycle in guinea pigs", "setting": "[1]; doses at which RU 486 increases uterine weights, compared with control animals", "result": "increases uterine weights"}, {"measurement": "uterine weights of cyclic guinea pigs, low dose", "setting": "[1]; low dosis, s.c. osmotic pump, day 10 to 18 of cycle", "result": "slight gain in uterine weights"}, {"measurement": "complete gravidity inhibition %", "setting": "[2]; 0.3 mg/animal/day s.c.", "result": 0, "unit": "%"}, {"measurement": "complete gravidity inhibition N*/N (females not pregnant/inseminated females)", "setting": "[2]; 0.3 mg/animal/day s.c.", "result": "0/5"}, {"measurement": "complete gravidity inhibition %", "setting": "[2]; 1.0 mg/animal/day s.c.", "result": 40, "unit": "%"}, {"measurement": "complete gravidity inhibition N*/N (females not pregnant/inseminated females)", "setting": "[2]; 1.0 mg/animal/day s.c.", "result": "2/5"}, {"measurement": "complete gravidity inhibition %", "setting": "[2]; 3.0 mg/animal/day s.c.", "result": 100, "unit": "%"}, {"measurement": "complete gravidity inhibition N*/N (females not pregnant/inseminated females)", "setting": "[2]; 3.0 mg/animal/day s.c.", "result": "5/5"}, {"measurement": "ED 50", "setting": "[2]; s.c., graphic determination", "result": 1.3, "unit": "mg/animal/day"}, {"measurement": "relative molar bonding affinity (RBA) to glucocorticoid receptor", "setting": "glucocorticoid receptor", "result": 685, "unit": "%"}]}
{"smiles": "CN(C)c1ccc([C@H]2C[C@]3(C)[C@@H](CC[C@]3(O)CCCO)[C@@H]3CCC4=CC(=O)CCC4=C32)cc1", "note": "[ZK 98299, Onapristone, reference compound]", "values": [{"measurement": "relative molar bonding affinity (RBA) to progesterone receptor", "setting": "progesterone receptor", "result": 22, "unit": "%"}, {"measurement": "relative molar bonding affinity (RBA) to glucocorticoid receptor", "setting": "glucocorticoid receptor", "result": 39, "unit": "%"}]}
